One assay deals with APC/C^Apc10-4A, Cdh1. Briefly: SMOR assay, yeast APC/C^Apc10-4A, Cdh1. It is filed as binding, Saccharomyces cerevisiae. The procedure: (§1) Yeast strains were derivatives of W303 and are listed in Supplementary Table 2. For APC/C purification, we used a strain carrying Cdc16-TAP and lacking Cdh1 (DOM1126); in most experiments, the strain also carried Apc1-GFP (NHY13). Yeast were grown in YPD media to OD600 = 0.8, collected and flash-frozen. Cells were lysed by bead beating in lysis buffer A (50 mM HEPES pH 7.5, 150 mM KCl, 10% glycerol, 0.2% Triton X-100, 63 µM B-glycerophosphate, 48 µM sodium fluoride, 1 µg ml^−1 pepstatin A, 1 µg ml^−1 leupeptin, 1 µg ml^−1 aprotinin, 1 mM PMSF, 1 mM DTT, 0.5 mM EDTA) and APC/C was purified using magnetic IgG beads. The beads were washed using wash buffer A (20 mM HEPES pH 7.5, 150 mM KCl, 10% Glycerol, 0.05% Triton X-100). After incubation with purified Cdh1 or Cdc20, the APC/C was cleaved off the beads with TEV protease in wash buffer A with 0.05% Tween-20 (for single-molecule studies) or 0.05% Triton X-100 (for ensemble assays such as ubiquitylation) and used immediately.
(§2) For all SMOR experiments, 24 × 50 mm high precision glass coverslips (Bioscience Tools) and drilled microscope slides were passivated with a combination of PEG and PEG-biotin (coverslips) or PEG only (slides) following a previously published protocol for SiMPull[31]. Reaction chambers (~20 µl) were created using double-sided tape and epoxy. Protein was immobilized on the surface with 0.2 mg ml^−1 NeutrAvidin in buffer C (20 mM HEPES pH 7.5, 150 mM KCl, 10% glycerol, 0.05% Tween-20, 1 mM DTT). Excess NeutrAvidin was washed away and incubated with either biotin-conjugated mouse monoclonal anti-Strep-Tag II antibody (LSBio, Cat. No. LS-C203632-100) or biotin-conjugated rabbit polyclonal anti-GFP antibody (Rockland, Cat. No. 600-406-215) diluted in buffer C + BSA (0.1 mg ml^−1; Molecular Biology Grade Bovine Serum Albumin). Activator WD40 and activated APC/C (typically 50 µl containing about 65 ng APC/C, of which only a small fraction is immobilized on the glass) were immobilized using anti-Strep-Tag II, while APC/C alone was immobilized with anti-GFP. SMOR results were similar when performed in the buffer (wash buffer B) used in polarization anisotropy.
(§3) To capture dynamic protein–protein interactions, dye-labeled substrate diluted in buffer C + BSA was added to the chamber containing immobilized proteins. Interactions were imaged by TIRF microscopy as described below. For optimal signal-to-noise ratio, peptide concentration was no greater than 1 nM. […]
(§4) Microscopy was performed with a Nikon Eclipse TE2000-E with Perfect Focus with a 100 × 1.49na oil, Apo TIRF DIC N2, 0.13-0.2, WD0.12 objective. Movies were recorded using the Andor iXon DU-897E-CSO. […]

The subject of the next assay is APC/C^Apc10-4A, Cdc20. Kind of assay: SMOR assay, yeast APC/C^Apc10-4A, Cdc20. It is filed as binding, Saccharomyces cerevisiae. The procedure: as §1, §2, §3, §4
The mark [1] stands for this setting: Supplementary Table 1, replicate 1.
[2] abbreviates: Supplementary Table 1, replicate 2.

Consider two compounds from PMC8764033, “Single-molecule analysis of specificity and multivalency in binding of short linear substrate motifs to the APC/C” (Nature Communications, 2022).

Where a SMILES comes first, the peptide text is derived from it.

On to `CC[C@H](C)[C@H](NC(=O)[C@H](CC(=O)O)NC(=O)[C@H](CO)NC(=O)[C@H](C)NC(=O)[C@H](C)NC(=O)[C@H](C)NC(=O)[C@H](C)NC(=O)[C@H](CCCCN)NC(=O)[C@@H]1CCCN1C(=O)[C@H](CCCCN)NC(=O)[C@H](CCC(N)=O)NC(=O)[C@@H](N)CCC(=O)O)C(=O)N[C@H](C(=O)N[C@@H](C)C(=O)N[C@@H](CO)C(=O)N[C@@H](Cc1ccccc1)C(=O)N[C@@H](CC(N)=O)C(=O)N[C@@H](CCCCN)C(=O)N[C@@H](CCSC)C(=O)N[C@@H](CC(N)=O)C(=O)N[C@@H](CCCCN)C(=O)O)[C@@H](C)O` [Hsl1 D box mutant] (H-EQKPKAAAASDITASFNKMNK-OH; N-terminus and C-terminus assumed), for which the “binding (in words)” value is “No binding” in the assay on APC/C^Apc10-4A, Cdh1 and “No binding” with APC/C^Apc10-4A, Cdc20. For the same compound, the “Dwell Time (in words)” value with APC/C^Apc10-4A, Cdh1 (setting [1]) is on record as “no binding”; with APC/C^Apc10-4A, Cdc20 (setting [1]), “no binding”.

Turning to `CC[C@H](C)[C@H](NC(=O)[C@H](Cc1ccccc1)NC(=O)[C@H](CO)NC(=O)[C@H](CCCCN)NC(=O)[C@H](CO)NC(=O)[C@H](CCCNC(=N)N)NC(=O)[C@H](CC(N)=O)NC(=O)[C@H](CC(N)=O)NC(=O)[C@H](CC(=O)O)NC(=O)[C@H](CCCCN)NC(=O)[C@H](C)NC(=O)[C@H](C)NC(=O)[C@H](CC(C)C)NC(=O)[C@@H]1CCCN1C(=O)[C@H](CC(C)C)NC(=O)[C@H](CCCNC(=N)N)NC(=O)CNC(=O)[C@H](CCC(N)=O)NC(=O)[C@H](CCC(N)=O)NC(=O)[C@H](CCC(N)=O)NC(=O)[C@H](C)N)C(=O)N[C@@H](CCCCN)C(=O)O` [ySecurin D box] (H-AQQQGRLPLAAKDNNRSKSFIK-OH; N-terminus and C-terminus assumed), the “Dwell Time (in words)” value in the assay on APC/C^Apc10-4A, Cdh1 (setting [1]) was “single frame”; with APC/C^Apc10-4A, Cdh1 (setting [2]), “single frame”; in the assay with APC/C^Apc10-4A, Cdc20 (setting [1]) it was “single frame”; in the assay with APC/C^Apc10-4A, Cdc20 (setting [2]), “single frame”.
